Assay results as given in PubChem BioAssay (NCI).
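Method: 48-hour compound exposure of cells in 96-well plates, five concentrations, linear interpolation of endpoints. At the TGI there is no net growth.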

Columns and labels:
Assay in all cases: NCI anticancer screen, dose series, 48 h
MALME-3M melanoma = test system: MALME-3M melanoma
NCI-H460 lung = test system: NCI-H460 lung
HCC-2998 colon = test system: HCC-2998 colon
T-47D breast = test system: T-47D breast
OVCAR-3 ovarian = test system: OVCAR-3 ovarian
HCT-15 colon = test system: HCT-15 colon
EKVX NSCLC = test system: EKVX NSCLC
MDA-N = test system: MDA-N
IGROV1 ovarian = test system: IGROV1 ovarian
CAKI-1 renal = test system: CAKI-1 renal
KM12 colon = test system: KM12 colon
HT29 colon = test system: HT29 colon
SF-539 CNS = test system: SF-539 CNS
SK-MEL-5 melanoma = test system: SK-MEL-5 melanoma
A549 NSCLC = test system: A549 NSCLC
HL-60(TB) leukemia = test system: HL-60(TB) leukemia
SF-295 CNS = test system: SF-295 CNS
MDA-MB-231 breast = test system: MDA-MB-231 breast
BT-549 breast = test system: BT-549 breast
SNB-75 CNS = test system: SNB-75 CNS
M14 melanoma = test system: M14 melanoma
OVCAR-4 ovarian = test system: OVCAR-4 ovarian
UACC-62 melanoma = test system: UACC-62 melanoma
MCF7 breast = test system: MCF7 breast
OVCAR-5 ovarian = test system: OVCAR-5 ovarian
PC-3 prostate = test system: PC-3 prostate
NCI/ADR-RES ovarian = test system: NCI/ADR-RES ovarian
CCRF-CEM leukemia = test system: CCRF-CEM leukemia
ACHN renal = test system: ACHN renal
A498 renal = test system: A498 renal
HCT-116 colon = test system: HCT-116 colon
SK-MEL-28 melanoma = test system: SK-MEL-28 melanoma
LOX IMVI melanoma = test system: LOX IMVI melanoma
SF-268 CNS = test system: SF-268 CNS
SW-620 colon = test system: SW-620 colon
786-0 renal = test system: 786-0 renal
MDA-MB-435 = test system: MDA-MB-435
OVCAR-8 ovarian = test system: OVCAR-8 ovarian
U251 CNS = test system: U251 CNS
NCI-H226 lung = test system: NCI-H226 lung
HOP-92 NSCLC = test system: HOP-92 NSCLC
SK-MEL-2 melanoma = test system: SK-MEL-2 melanoma
HOP-62 NSCLC = test system: HOP-62 NSCLC
DU-145 prostate = test system: DU-145 prostate
NCI-H522 lung = test system: NCI-H522 lung
K-562 leukemia = test system: K-562 leukemia
NCI-H23 lung = test system: NCI-H23 lung
SK-OV-3 ovarian = test system: SK-OV-3 ovarian
UACC-257 melanoma = test system: UACC-257 melanoma
COLO 205 colon = test system: COLO 205 colon
HS 578T breast = test system: HS 578T breast
SNB-19 CNS = test system: SNB-19 CNS
RPMI-8226 leukemia = test system: RPMI-8226 leukemia
SN12C renal = test system: SN12C renal
MOLT-4 leukemia = test system: MOLT-4 leukemia
TK-10 renal = test system: TK-10 renal
RXF 393 renal = test system: RXF 393 renal
UO-31 renal = test system: UO-31 renal
SR leukemia = test system: SR leukemia

Measured: TGI

CC(Cl)CN1c2ccccc2Sc2ccc(Cl)cc21 (stereo not drawn)
not listed: SR leukemia
> 10 µM: all other assays above

CC(NC(=O)Cc1ccccc1)NC(=O)C(C)C(=O)NCc1ccccc1 (stereo not drawn)
83.3 µM: HS 578T breast
58.8 µM: SNB-19 CNS
77.8 µM: NCI-H226 lung
75 µM: BT-549 breast
88.8 µM: HOP-92 NSCLC
not listed: HCC-2998 colon | OVCAR-3 ovarian | A498 renal | SK-MEL-28 melanoma | LOX IMVI melanoma | HOP-62 NSCLC
> 100 µM: all other assays above

CN1CC=C(c2c(N)nc(N)[nH]c2=O)CC1
not listed: HCC-2998 colon | LOX IMVI melanoma | TK-10 renal
> 100 µM: all other assays above

O=P1(Cc2ccccc2)N(Cc2ccccc2)[C@@H]2CCCC[C@H]2N1Cc1ccccc1
16.6 µM: M14 melanoma
32.2 µM: HOP-62 NSCLC
18.7 µM: COLO 205 colon
27.1 µM: DU-145 prostate
8.44 µM: MOLT-4 leukemia
32.3 µM: CCRF-CEM leukemia
23.8 µM: HCT-15 colon | OVCAR-8 ovarian
23.3 µM: MCF7 breast
15.3 µM: PC-3 prostate
33.2 µM: SK-MEL-28 melanoma
26.7 µM: TK-10 renal
24.3 µM: T-47D breast | SF-268 CNS
26.5 µM: HS 578T breast
4.63 µM: NCI-H226 lung
30.1 µM: SW-620 colon
20.1 µM: UACC-257 melanoma
8.06 µM: SR leukemia
23 µM: NCI/ADR-RES ovarian
24.7 µM: OVCAR-5 ovarian
20.9 µM: OVCAR-3 ovarian
25.8 µM: NCI-H460 lung
23.2 µM: NCI-H23 lung | SN12C renal
19.8 µM: MDA-N | HL-60(TB) leukemia | MDA-MB-435
27.2 µM: 786-0 renal
24.9 µM: MDA-MB-231 breast
14.4 µM: NCI-H522 lung
18.6 µM: HT29 colon
26.9 µM: RXF 393 renal
3.57 µM: SK-MEL-5 melanoma
23.7 µM: CAKI-1 renal
19.4 µM: IGROV1 ovarian
20 µM: HCT-116 colon
22 µM: HCC-2998 colon
33.8 µM: SF-539 CNS | BT-549 breast
22.4 µM: EKVX NSCLC | KM12 colon
26.1 µM: LOX IMVI melanoma
25.5 µM: ACHN renal | U251 CNS
19.7 µM: A549 NSCLC | UO-31 renal
32.4 µM: MALME-3M melanoma
28 µM: SK-OV-3 ovarian
21.1 µM: SF-295 CNS | SNB-75 CNS
20.6 µM: UACC-62 melanoma
19.2 µM: K-562 leukemia
15.2 µM: OVCAR-4 ovarian
25.4 µM: SK-MEL-2 melanoma
24.2 µM: SNB-19 CNS
